Experimental data: ChEMBL document CHEMBL1143569, “Predicting human serum albumin affinity of interleukin-8 (CXCL8) inhibitors by 3D-QSPR approach” (J Med Chem, 2005)

The compounds below were run against albumin (Homo sapiens, UniProt P02768) (assay: Percentage plasma protein binding towards human serum albumin). Settings: read-out: PB (converted).
Type: cell-free

Sequence of albumin (P02768 whole entry): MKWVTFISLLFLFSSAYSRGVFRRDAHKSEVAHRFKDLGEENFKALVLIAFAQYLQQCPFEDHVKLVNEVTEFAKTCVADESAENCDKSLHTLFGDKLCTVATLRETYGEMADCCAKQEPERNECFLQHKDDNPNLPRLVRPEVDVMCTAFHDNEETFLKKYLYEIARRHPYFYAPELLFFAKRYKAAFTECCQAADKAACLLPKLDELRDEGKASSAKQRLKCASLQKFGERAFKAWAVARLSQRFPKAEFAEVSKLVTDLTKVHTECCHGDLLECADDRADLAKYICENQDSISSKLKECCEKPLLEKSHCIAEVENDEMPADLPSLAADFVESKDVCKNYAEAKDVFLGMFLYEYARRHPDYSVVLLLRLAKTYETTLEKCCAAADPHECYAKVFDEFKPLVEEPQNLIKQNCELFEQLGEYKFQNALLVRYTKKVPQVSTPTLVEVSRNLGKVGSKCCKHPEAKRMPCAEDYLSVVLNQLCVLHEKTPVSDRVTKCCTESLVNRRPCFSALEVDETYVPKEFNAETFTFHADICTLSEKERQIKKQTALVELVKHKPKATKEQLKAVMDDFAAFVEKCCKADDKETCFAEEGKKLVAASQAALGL

Row | SMILES | fraction unbound
1 | CC1=C(CC(=O)O)c2cc(F)ccc2/C1=C\c1ccc([S+](C)[O-])cc1 (stereo unspecified) | 0.06
2 | CC(C)Cc1ccc([C@@H](C)C(=O)NCCCN(C)C)cc1 | 0.249
3 | CC(Cc1ccc([C@@H](C)C(=O)NS(C)(=O)=O)cc1)C(=O)O (stereo partly specified) | 0.298
4 | C[C@@H](C(=O)NCCN1CCCC1)c1ccc(OS(=O)(=O)C(F)(F)F)cc1 | 0.3
5 | CC(C)Cc1ccc([C@@H](C)C(=O)NCCCN2CCCCC2)cc1 | 0.149
6 | CC(C)Cc1ccc([C@@H](C)C(=O)N[C@H](C)C(=O)O)cc1 | 0.04
7 | COc1ccc2c(c1)CN(c1ccc(C(C)C(=O)O)cc1)C2=O (stereo unspecified) | 0.02
8 | C[C@@H](C(=O)NCCCN1CCCC1)c1ccc(OS(=O)(=O)C(F)(F)F)cc1 | 0.38
9 | C[C@@H](C(N)=O)c1ccc(OS(=O)(=O)C(F)(F)F)cc1 | 0.08
10 | CC(C)Cc1ccc([C@@H](C)C(=O)NCCOCCO)cc1 | 0.169
11 | CCCNC(=O)NS(=O)(=O)c1ccc(Cl)cc1 [CHLORPROPAMIDE] | 0.04
12 | CC(C(=O)O)c1ccc(-c2ccccc2)c(F)c1 (stereo unspecified) [FLURBIPROFEN] | 0.005
13 | NS(=O)(=O)c1cc2c(cc1Cl)NCNS2(=O)=O [HYDROCHLOROTHIAZIDE] | 0.42
14 | O=C(c1ccccc1)c1ccc2n1CCC2C(=O)O (stereo unspecified) [KETOROLAC] | 0.008
15 | C[C@@H](C(=O)NS(C)(=O)=O)c1ccc(OS(=O)(=O)C(F)(F)F)cc1 [LADARIXIN] | 0.002
16 | CS(=O)(=O)Nc1ccc([N+](=O)[O-])cc1Oc1ccccc1 [NIMESULIDE] | 0.1
17 | CC(C)Cc1ccc([C@@H](C)C(=O)NS(C)(=O)=O)cc1 [REPARIXIN] | 0.001
18 | CC(C)NCC(O)c1ccc(NS(C)(=O)=O)cc1 (stereo unspecified) [SOTALOL] | 0.825
19 | Cc1ccc(S(=O)(=O)NC(=O)NN2CCCCCC2)cc1 [TOLAZAMIDE] | 0.03
20 | Cc1ccc(C(=O)c2ccc(CC(=O)O)n2C)cc1 [TOLMETIN] | 0.004
21 | Cc1cc(CC(=O)O)n(C)c1C(=O)c1ccc(Cl)cc1 [ZOMEPIRAC] | 0.015
